The values that follow come from the supplement of paper PMC10307832.

What all share (assay): relative viability (nuclei count vs DMSO), 5 days (fraction); higher = more cells survive
Compound in the assay “OSI-027 + Dasatinib”: COc1cccc2cc(-c3nc([C@H]4CC[C@H](C(=O)O)CC4)n4ncnc(N)c34)[nH]c12 [OSI-027] + Cc1nc(Nc2ncc(C(=O)Nc3c(C)cccc3Cl)s2)cc(N2CCN(CCO)CC2)n1 [Dasatinib] (partner 0.075 µM)
Put shortly:
(§1)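 Lung cancer cell lines were seeded in 1536-well plates and dosed by pin tool the next day, with either a single drug or a fixed anchor-drug dose combined with five library-drug doses (not always all listed) spaced in √10 steps. Five days later, one step fixed the cells and stained their nuclei (final 0.05% Triton X-100, 1% formaldehyde, 1 ug/ml Hoechst), and nuclei were counted on 4× images. Relative viability is the nuclei count in treated wells divided by the count in vehicle wells, and each value is the median of duplicate plates.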

Compound in the assay “OSI-027 + Foretinib”: COc1cccc2cc(-c3nc([C@H]4CC[C@H](C(=O)O)CC4)n4ncnc(N)c34)[nH]c12 [OSI-027] + COc1cc2c(Oc3ccc(NC(=O)C4(C(=O)Nc5ccc(F)cc5)CC4)cc3F)ccnc2cc1OCCCN1CCOCC1 [Foretinib] (partner 0.25 µM)
An outline of the steps: as §1

Compound in the assay “Alpelisib + Tozasertib”: Cc1nc(NC(=O)N2CCC[C@H]2C(N)=O)sc1-c1ccnc(C(C)(C)C(F)(F)F)c1 [Alpelisib] + Cc1cc(Nc2cc(N3CCN(C)CC3)nc(Sc3ccc(NC(=O)C4CC4)cc3)n2)n[nH]1 [Tozasertib] (partner 0.1 µM)
Put shortly:
as §1

Compound in the assay “Vemurafenib + Alpelisib”: CCCS(=O)(=O)Nc1ccc(F)c(C(=O)c2c[nH]c3ncc(-c4ccc(Cl)cc4)cc23)c1F [Vemurafenib] + Cc1nc(NC(=O)N2CCC[C@H]2C(N)=O)sc1-c1ccnc(C(C)(C)C(F)(F)F)c1 [Alpelisib] (partner 2 µM)
Put shortly: as §1

As for UMC-11, the relative viability came to 0.537 in the assay with OSI-027 + Dasatinib (first compound 0.01 µM); 0.457 in the assay with OSI-027 + Dasatinib (first compound 0.03162 µM); 0.404 with OSI-027 + Dasatinib (first compound 0.1 µM); 0.434 in the assay with OSI-027 + Dasatinib (first compound 0.3162 µM); 0.299 with OSI-027 + Dasatinib (first compound 1 µM); 0.903 with OSI-027 + Foretinib (first compound 0.01 µM). Also, the relative viability in the assay with OSI-027 + Foretinib (first compound 0.03162 µM) turned out to be 0.866; with OSI-027 + Foretinib (first compound 0.1 µM) it was 0.77; with OSI-027 + Foretinib (first compound 0.3162 µM), 0.671; with OSI-027 + Foretinib (first compound 1 µM), 0.444; with Alpelisib + Tozasertib (first compound 0.04 µM) it was 0.188; with Alpelisib + Tozasertib (first compound 0.1265 µM) it was 0.198. The relative viability came to 0.213 with Alpelisib + Tozasertib (first compound 0.4 µM); 0.219 with Alpelisib + Tozasertib (first compound 1.265 µM); 0.186 with Alpelisib + Tozasertib (first compound 4 µM); 0.954 with Vemurafenib + Alpelisib (first compound 0.03162 µM); 0.947 with Vemurafenib + Alpelisib (first compound 0.1 µM); 1.09 with Vemurafenib + Alpelisib (first compound 0.3162 µM). Besides, in the assay with Vemurafenib + Alpelisib (first compound 1 µM), the relative viability amounted to 0.91.
